Measured values from patent US10179770B2, “Quinolines derivatives as novel anticancer agents” (GENOSCIENCE PHARMA, priority 2013, dated 2019).

How the values were obtained:
HT29 cells = assay: Combination study with standard chemotherapy agents, Combination Index (Chou and Talalay); format: cell-based, human; conditions: preliminary results
Experimental: Anticancer drugs were tested around their EC50 in […] cell line, The general assay procedure is the same as described in example 53 for compound XIX-3. Loewe additivity model: The experimental data are analyzed by using CalcuSyn (Biosoft, Stapleford, UK), a computer program based on the method of Chou and Talalay. Briefly, the dose-effect curves for each drug or drug combination were converted to median-effect plots with CalcuSyn. Then, a combination index (CI) value for each experimental combination was calculated on the basis of the following equation: [formula] Where for n=2 (combination of 2 compounds): D1 and D2 are the doses of drug 1 and drug 2 that have x effect when each drug is used alone d1 and d2 are the doses of drug 1 and drug 2 that have the same x effect when they are used in combination. [table] [table]

MIA PaCa-2 = assay: Cell viability assay, pancreatic cancer cell lines; format: cell-based; conditions: Homo sapiens; MIA PaCa-2 (Pancreas); 48 h
Experimental: (§1) MiaPaCa-2, Panc-1 cells were grown in Dulbecco's modified eagle's medium (DMEM) (Gibco) supplemented with 10% fetal bovine serum (FBS), while BxPC-3, Capan-1, Capan-2 cells were grown in Roswell Park Memorial Institute 1640 (RPMI 1640) (Gibco) supplemented with 10% FBS. Gemcitabine (Gemzar) was purchased from Lilly France S.A.S (Suresnes, France). (3-(4,5-dimethylthiazol-2-yl)-2,5diphenyltetrazolium bromide, MTT) was purchased from Sigma-Aldrich.
(§2) BxPC-3, MiaPaCa-2, Panc-1 cells were seeded into a 96-well plate at 10,000 10,000 15,000 cells per well respectively, while Capan-1 and Capan-2 cells at 20,000 cells per well and allowed to adhere overnight. Then the culture medium was removed and replaced with fresh media alone as control or containing various concentrations of different compounds. In dose-dependent assay, the cells were treated with compound XIX-3 at the concentration varying from 0.1 μM to 100 μM while the cells being cultured by fresh media alone were used as control. After 48 h treatment, the number of remained viable cells was determined by (3-(4,5-dimethylthiazol-2-yl)-2,5diphenyltetrazolium bromide, MTT) colorimetric assay (see Sigma Aldrich protocol and Riss T. L. et al. Cell Viability Assays in Assay Guidance Manual 2013 ppl.). All experiments were done in duplicate and repeated two independent times.

BxPC-3 = assay: Cell viability assay, pancreatic cancer cell lines; format: cell-based; conditions: Homo sapiens; BxPC-3 (Pancreas); 48 h
Experimental: as §1, §2

Panc-1 = assay: Cell viability assay, pancreatic cancer cell lines; format: cell-based; conditions: Homo sapiens; Panc-1 (Pancreas); 48 h
Experimental: as §1, §2

Capan-1 = assay: Cell viability assay, pancreatic cancer cell lines; format: cell-based; conditions: Homo sapiens; Capan-1 (Pancreas); 48 h
Experimental: as §1, §2

Capan-2 = assay: Cell viability assay, pancreatic cancer cell lines; format: cell-based; conditions: Homo sapiens; Capan-2 (Pancreas); 48 h
Experimental: as §1, §2

RPMI-8226 = assay: NCI-60 screen (SRB); format: cell-based; conditions: RPMI-8226 (Leukemia)
In short: (§3)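 RPMI 1640/5% FBS/2 mM Gln; 24 h attach; Tz plates TCA-fixed at dosing; 5 conc. (10-fold or ½-log), 48 h, 37 °C, 5% CO2; SRB, A515; GI50/TGI/LC50 from Tz, C, Ti.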

OVCAR-4 = assay: NCI-60 screen (SRB); format: cell-based; conditions: OVCAR-4 (Ovarian)
In short: as §3

B16F10 = assay: CellTiter-Glo cell viability assay (example 57); format: cell-based, human; conditions: Mus musculus, B16-F10; B16F10 (Melanoma); Cell Titer-Glo; 72 h
[1] = Homo sapiens, read-out: LC50 (the source's name)

## CCN(CC)C1CCN(C(C)c2cc(-c3ccccc3)nc3ccccc23)CC1.Cl.Cl (stereo not shown) [XIX-3, 2-phenyl-4-{1-[4-(N,N-diethylamino)piperidin-1-yl]-eth-1-yl}quinoline dihydrochloride]
HT29 cells; HT29 cells
  Combination effect with standard chemotherapy agents: Synergy Effect
HT29 cells; XIX-3 at 18 μM in combination with well described anticancer drugs, HT-29
  Combination Index (CI): < 1
MIA PaCa-2
  EC50: 34 µM
BxPC-3
  EC50: 33 µM
Panc-1
  EC50: 34 µM
Capan-1
  EC50: 27 µM
Capan-2
  EC50: 32 µM
RPMI-8226; Homo sapiens
  GI50: 2 µM
RPMI-8226; [1]
  CC50: 26 µM
RPMI-8226
  TGI: 5 µM
RPMI-8226; 10 μM
  Growth percent at 10 μM: ++++ (cell growth % < 20)
OVCAR-4; Homo sapiens
  GI50: 11 µM
OVCAR-4; [1]
  CC50: 52 µM
OVCAR-4
  TGI: 24 µM
OVCAR-4; 10 μM
  Growth percent at 10 μM: ++ (cell growth 40 > % < 60)
B16F10
  EC50: 10 µM
